Common to all, as to assay: NCI-60 cell line screen, 48 h
In experiment [1] the test system is BT-549 breast.
Experiment [2] has as its system EKVX NSCLC.
The subject of experiment [3] is NCI-H226 lung.
In experiment [4] the test system is IGROV1 ovarian.
Experiment [5] deals with HL-60(TB) leukemia.

Experimental findings from PubChem BioAssay (NCI) are described below.

Where “and” joins values, the source holds several entries; their conditions need not be identical. Equal entries are not always repeated.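 Interpolation was linear, between the two tested concentrations surrounding the appropriate level; five concentrations were tested over 48 hours in 96-well plates. GI50: concentration for 50% inhibition of growth. TGI: concentration producing complete growth inhibition.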 Some results are limits rather than exact numbers.

`CCOC(=O)C(C(=O)OCC)=C1NC2(c3ccccc3Nc3ccccc32)C(C#N)S1` (configuration not stated): the TGI was found to be 27.5 µM in experiment [1]; 47.2 µM in experiment [2]; 26.2 µM in experiment [3]; 25.6 µM in experiment [4]; 55.5 µM in experiment [5].
For `CCOC(=O)/C=C/CCO[Si](C)(C)C(C)(C)C`, the TGI in experiment [1], in experiment [2], in experiment [3] and in experiment [4] was > 100 µM each time.
Take `Clc1cc(Cl)cc(N=C/C=C/Nc2cc(Cl)cc(Cl)c2)c1`: the TGI in experiment [1] is > 100 µM; in experiment [2], 26.9 µM; in experiment [3], 32.8 µM; in experiment [4], 55.8 µM; in experiment [5], 49.7 µM.
Turning to `COC(=O)c1ccc(S)c(S(=O)(=O)Nc2n[nH]c(N)n2)c1`, the TGI in experiment [1], in experiment [2], in experiment [4] and in experiment [5] was > 100 µM each time.
Turning to `O=C1CSC2(CC(/C=C/c3cccc([N+](=O)[O-])c3)=NN2c2cccc(S(=O)(=O)O)c2)N1c1nc2ccccc2s1` (configuration not stated), the TGI in experiment [1] was 32.7 µM; in experiment [2], > 100 µM; in experiment [3] it was 77.5 µM; in experiment [4], 36.8 µM; in experiment [5] it was 92.5 µM.
`O=C(c1cccs1)N(C(=S)OCCOc1ccccc1)c1ccccc1`: the TGI was 65.1 µM in experiment [1], 78.8 µM in experiment [2], 79.2 µM in experiment [4] and 48 µM in experiment [5].
`O=[N+]([O-])c1cccc2nc3ccccc3c(NCCCNc3c4ccccc4nc4cccc([N+](=O)[O-])c34)c12`: the TGI worked out at 0.441 µM in experiment [1]; 0.0975 µM in experiment [2]; 11.7 µM in experiment [3]; 0.967 µM in experiment [4]; 0.328 µM in experiment [5].
Take `COc1ccc(/C(Br)=C2\OC(=O)c3ccccc32)cc1`: the TGI in experiment [2], in experiment [3], in experiment [4] and in experiment [5] was > 10 µM in each case.
With `N[C@H](C(=O)O)[C@@H]1CC(Br)=NO1`, the TGI in experiment [1], in experiment [2], in experiment [3], in experiment [4] and in experiment [5] was > 100 µM throughout.
Turning to `CCOC(=O)C1(F)S(=O)(=O)OCCOS1(=O)=O`, the TGI in experiment [1], in experiment [2] and in experiment [3] was > 100 µM each time.
Consider `CCC(=O)C(CCN1CCC2(CCCc3ccccc32)CC1)(c1ccccc1)c1ccccc1`, for which the TGI is 3.36 µM in experiment [1]; 17.6 µM in experiment [2]; 6.58 µM in experiment [3]; 10.3 µM in experiment [4]; 5.12 µM in experiment [5].
Turning to `CCOC(=O)CNC(=O)C(CSC(=O)N(O)c1ccc(Cl)cc1)NC(=O)CCC(N)C(=O)OCC` (configuration not stated), the TGI in experiment [1], in experiment [2], in experiment [3] and in experiment [4] was > 50 µM throughout.
Consider `Oc1ccc2cc(Br)ccc2c1-c1c(O)ccc2ccc(Br)cc12`, for which the TGI in experiment [1] amounted to 27.9 µM; in experiment [3], 30.4 µM; in experiment [4], 20.7 µM; in experiment [5], 38.2 µM.
As for `COc1c(=O)cc2cc[nH]c3ccn(C)c1c23`, the TGI in experiment [1], in experiment [2], in experiment [3] and in experiment [4] was > 100 µM in each case.
As to `O=c1[nH]c(=S)nc2nc3c4ccc[nH]c4c4ccccc4c3nc12`, the TGI was > 100 µM in experiment [1], > 100 µM in experiment [2], > 100 µM in experiment [4] and 66.1 µM in experiment [5].
Consider `CCOP1(=O)CC(C)=C(Cl)C(O)C1` (configuration not stated), for which the TGI in experiment [1], in experiment [2], in experiment [3], in experiment [4] and in experiment [5] was > 100 µM each time.
Regarding `[N-]=[N+]=NI1OC(=O)c2ccccc21`, the TGI in experiment [2] is > 100 µM; in experiment [3] it was > 100 µM; in experiment [4], > 100 µM; in experiment [5], 84 µM.
Regarding `COc1ccc(OC)c(CNc2ccc(C(=O)O)cc2)c1`, the TGI in experiment [1], in experiment [2], in experiment [3], in experiment [4] and in experiment [5] was > 100 µM in each case.
On to `N#Cc1nc(-c2ccco2)oc1N`, for which the TGI in experiment [1], in experiment [2], in experiment [3], in experiment [4] and in experiment [5] was > 10 µM each time.
Consider `CC(=O)Oc1ccc(/C=C/C(=O)OCCCOC(=O)/C=C/c2ccc(OC(C)=O)c(OC(C)=O)c2)cc1OC(C)=O`, for which the TGI in experiment [1] was > 100 µM; in experiment [2], > 100 µM; in experiment [4] it was > 100 µM; in experiment [5], 18.2 µM.
Regarding `NC(=O)C(=CNC(=S)Nc1ccccc1)C(N)=O`, the TGI in experiment [2], in experiment [3], in experiment [4] and in experiment [5] was > 100 µM each time.
Take `CC(=O)NC1C(OCc2ccccc2)OC(CO)C(O)C1OC(C)C(=O)NC(C)C(=O)NC(CCC(=O)NCCCCNc1c2ccccc2nc2cccc([N+](=O)[O-])c12)C(N)=O` (configuration not stated): the TGI in experiment [1] came to 0.531 µM; in experiment [2] it was 0.322 µM; in experiment [3], 0.43 µM; in experiment [4], 0.612 µM; in experiment [5] it was 0.207 µM.
With `COC(=O)C(CCSC)NC(=O)CNC(=O)CSc1nnc(COc2ccc(Cl)cc2)n1-c1ccccc1` (configuration not stated), the TGI came to 30.6 µM in experiment [1], 36.9 µM in experiment [3], 30.2 µM in experiment [4] and 38.3 µM in experiment [5].
With `CCOC(=O)NNC(=O)NCc1cccc(CNC(=O)NNC(=O)OCC)c1`, the TGI in experiment [1], in experiment [2], in experiment [3] and in experiment [5] was > 100 µM in each case.
Consider `O=[N+]([O-])c1ccc(OC2CC3C4C=CC3C2C4)c([N+](=O)[O-])c1` (configuration not stated), for which the GI50 in experiment [2] is 56.5 µM and 22 µM; in experiment [4], 91.5 µM and > 31.6 µM; in experiment [5] it was 69.7 µM. The TGI in experiment [2], in experiment [3], in experiment [4] and in experiment [5] was > 100 µM in each case.
Turning to `Nc1ccc2c(c1)nc1n2C(c2c(F)cccc2F)SC1` (configuration not stated), the TGI in experiment [1], in experiment [2], in experiment [4] and in experiment [5] was > 100 µM in each case.
As for `O=C(NC1CCN(Cc2ccccc2)CC1)c1ccc(I)cc1`, the TGI in experiment [1], in experiment [2], in experiment [3], in experiment [4] and in experiment [5] was > 100 µM each time.
With `CC(C)(C)C1=CC(C)(n2[nH]c(=O)n(-c3ccccc3)c2=O)C=C(C(C)(C)C)C1=O`, the TGI in experiment [1] and in experiment [3] was > 100 µM in each case.
With `CCOC(=O)c1sc2nc(SC)nc3c2c1NCN3c1ccc2c(c1)OCO2`, the TGI in experiment [1], in experiment [2], in experiment [3], in experiment [4] and in experiment [5] was > 100 µM each time.
With `CSC(=S)Nc1cccc(C)n1`, the TGI in experiment [2], in experiment [3], in experiment [4] and in experiment [5] was > 100 µM in each case.
In the case of `N#Cc1c2c(c(N)oc1=O)C(c1ccccc1)CC(=O)N2` (configuration not stated), the TGI in experiment [1], in experiment [2], in experiment [3], in experiment [4] and in experiment [5] was > 100 µM throughout.
In the case of `C[C@]12C[C@@H](OC(=O)[C@]1(C)O)[C@@H]([C@]1(O)CC[C@H]3[C@@H]4C[C@H]5O[C@]56C[C@H]5O[C@H]5C(=O)[C@]6(C)[C@H]4CC[C@@]31C)C2`, the TGI in experiment [2], in experiment [3], in experiment [4] and in experiment [5] was > 50 µM each time.
As for `O=[N+]([O-])/C(C(Cl)=C(Cl)Cl)=C(/Cl)SCc1ccccc1`, the TGI in experiment [2] was found to be 40.1 µM; in experiment [3], 56.7 µM; in experiment [4], 35.7 µM; in experiment [5] it was 0.437 µM.
For the compound `CC1(C)CNCC(C)(OCc2ccccc2)C(=O)NC(C)(C)CNCC(C)(OCc2ccccc2)C(=O)N1` (configuration not stated), the TGI in experiment [1], in experiment [2], in experiment [3] and in experiment [4] was > 10 µM throughout.
As for `C[N+]12C=CC=C1C(N1CCCC1)c1scc(-c3ccccc3)c12` (configuration not stated), the TGI was > 100 µM in experiment [1], > 100 µM in experiment [2], 28.9 µM in experiment [3] and 31.6 µM in experiment [4].
Consider `O=C(/C=C/c1ccccc1)Oc1ccc(C(=O)/C=C/c2ccc(Cl)cc2)cc1`, for which the TGI in experiment [1], in experiment [2], in experiment [4] and in experiment [5] was > 100 µM each time.
As to `CCC1OC2C(CC=C(C)C)=C3OC(C)(O)C(C)(CC)C(OC(C)=O)C3=C3OC(=O)C=C1C32` (configuration not stated), the TGI in experiment [1] was 42.9 µM; in experiment [2], > 100 µM; in experiment [4], 69.6 µM; in experiment [5], > 100 µM.
As to `O=c1[nH]nc(Cc2ccccc2)n1C1CCCC1`, the TGI in experiment [2], in experiment [3], in experiment [4] and in experiment [5] was > 100 µM in each case.
Consider `CC1(C)CC[C@]2(C)CC[C@]3(C)C(=CC[C@@H]4[C@@]5(C)CCC(=O)C(C)(C)[C@@H]5[C@H](O)C[C@]43C)[C@@H]2C1`, for which the TGI in experiment [1] was 35.4 µM; in experiment [2], 32.4 µM; in experiment [4], 32.1 µM; in experiment [5] it was > 100 µM.
For the compound `COC(=O)c1cc2c(c3c1CC(Cc1ccccc1)C3=O)CCC2` (configuration not stated), the TGI in experiment [2], in experiment [3], in experiment [4] and in experiment [5] was > 100 µM throughout.
On to `CC1CN=C(N(Cc2ccccc2)C(=O)Nc2ccc(Cl)c(Cl)c2)S1` (configuration not stated), for which the values for the TGI in experiment [2], in experiment [4] and in experiment [5] were > 100 µM, > 100 µM and > 10 µM, respectively.
As for `O=C1Cc2c([nH]c3ccc(Br)cc23)-c2cc(O)c(O)cc2N1`, the TGI in experiment [1], in experiment [2] and in experiment [3] was > 100 µM throughout.
For `CCCCCCCC1(N=[N+]=[N-])C(=O)Nc2ccccc2C1=O` (configuration not stated), the TGI was 30.4 µM in experiment [1] and 25.6 µM in experiment [4].
In the case of `O=[N+]([O-])c1ccc(-c2nc3ccc(Cl)cc3[nH]2)cc1`, the TGI in experiment [1], in experiment [2], in experiment [3] and in experiment [4] was > 100 µM each time.
As for `CC1=NN(c2nc(N)nc(/C(C#N)=C\c3csc([N+](=O)[O-])c3)n2)C(C)(C)C1`, the TGI is 90.1 µM in experiment [2], 76 µM in experiment [3], > 100 µM in experiment [4] and > 100 µM in experiment [5].
Take `COc1ccc2c(c1)c1c(n2CCN(C)C)-c2ccccc2CC1`: the TGI was found to be 30.7 µM in experiment [1], 24.4 µM in experiment [2], 24.6 µM in experiment [3] and 27 µM in experiment [4].
Turning to `COc1ccc(N2C(=O)/C(=C\c3cc(OC)c(OC)c(OC)c3)SC2c2ccccc2)cc1` (configuration not stated), the TGI in experiment [1], in experiment [2], in experiment [3] and in experiment [5] was > 100 µM in each case.
As for `Oc1[nH]c2ccccc2c1N=NC(=S)Nc1ccccc1Cl`, the TGI in experiment [2] was 77.9 µM; in experiment [3], 53 µM; in experiment [4] it was 29.8 µM; in experiment [5], 18.7 µM.
For `COC(=O)[C@]1(NC(=O)c2ccccc2)C[C@H]1C=O`, the TGI in experiment [1], in experiment [2], in experiment [3] and in experiment [4] was > 100 µM in each case.
In the case of `COc1ccc(OC)c(N(CN2C(=O)CCC2C(=O)O)C(C)=O)c1` (configuration not stated), the TGI in experiment [2], in experiment [3], in experiment [4] and in experiment [5] was > 100 µM throughout.
In the case of `NC1CC(=O)c2c1sc(Cl)c2Cl` (configuration not stated), the TGI in experiment [1], in experiment [2], in experiment [4] and in experiment [5] was > 100 µM throughout.
In the case of `C=C1CC(c2ccc(OCCCN3C(=O)c4ccccc4C3=O)cc2)OC1=O` (configuration not stated), the TGI in experiment [2] was found to be 18.4 µM; in experiment [3], 11.4 µM; in experiment [4], 4.57 µM; in experiment [5], 5.22 µM.
